Results taken from ChEMBL document CHEMBL1139302, “Modification of the N-terminal sulfonyl residue in 3-amidinophenylalanine-based matriptase inhibitors” (Bioorg Med Chem Lett, 2009).
pKi: −log10 of the molar value.

Legend:
[1] = biological target: Urokinase-type plasminogen activator (Homo sapiens, UniProt P00749); assay: Inhibition of uPA
[2] = biological target: T1, Suppressor of tumorigenicity 14 protein (Homo sapiens, UniProt Q9Y5Y6); assay: Inhibition of matriptase
T1 sequence (Q9Y5Y6 whole entry): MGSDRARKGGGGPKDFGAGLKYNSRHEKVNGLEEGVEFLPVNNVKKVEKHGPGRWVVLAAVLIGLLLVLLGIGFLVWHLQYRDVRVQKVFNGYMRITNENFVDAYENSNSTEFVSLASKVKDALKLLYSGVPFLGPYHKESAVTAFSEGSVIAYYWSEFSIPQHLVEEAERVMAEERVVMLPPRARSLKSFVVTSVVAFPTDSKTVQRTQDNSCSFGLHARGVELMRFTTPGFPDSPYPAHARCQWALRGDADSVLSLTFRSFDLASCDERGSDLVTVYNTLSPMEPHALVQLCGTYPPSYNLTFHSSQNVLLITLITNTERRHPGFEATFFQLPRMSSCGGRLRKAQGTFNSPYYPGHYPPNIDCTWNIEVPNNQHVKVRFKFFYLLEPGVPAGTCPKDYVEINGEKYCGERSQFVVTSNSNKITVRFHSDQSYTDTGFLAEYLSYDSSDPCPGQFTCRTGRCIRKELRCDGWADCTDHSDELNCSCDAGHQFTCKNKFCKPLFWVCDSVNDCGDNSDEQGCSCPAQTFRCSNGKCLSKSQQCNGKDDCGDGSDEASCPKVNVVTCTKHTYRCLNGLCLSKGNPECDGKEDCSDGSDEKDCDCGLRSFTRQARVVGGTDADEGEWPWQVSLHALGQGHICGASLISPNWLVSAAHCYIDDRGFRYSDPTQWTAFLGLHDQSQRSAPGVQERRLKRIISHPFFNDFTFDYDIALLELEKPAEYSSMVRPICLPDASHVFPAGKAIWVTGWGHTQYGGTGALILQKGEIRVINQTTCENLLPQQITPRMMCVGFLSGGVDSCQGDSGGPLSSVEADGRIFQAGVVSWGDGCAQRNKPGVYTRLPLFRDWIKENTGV

Prothrombin = Prothrombin (Homo sapiens, UniProt P00734); assay: Inhibition of thrombin
Plasminogen = Plasminogen (Homo sapiens, UniProt P00747); assay: Inhibition of plasmin
Sequence of Plasminogen (P00747 97-580 limits assumed): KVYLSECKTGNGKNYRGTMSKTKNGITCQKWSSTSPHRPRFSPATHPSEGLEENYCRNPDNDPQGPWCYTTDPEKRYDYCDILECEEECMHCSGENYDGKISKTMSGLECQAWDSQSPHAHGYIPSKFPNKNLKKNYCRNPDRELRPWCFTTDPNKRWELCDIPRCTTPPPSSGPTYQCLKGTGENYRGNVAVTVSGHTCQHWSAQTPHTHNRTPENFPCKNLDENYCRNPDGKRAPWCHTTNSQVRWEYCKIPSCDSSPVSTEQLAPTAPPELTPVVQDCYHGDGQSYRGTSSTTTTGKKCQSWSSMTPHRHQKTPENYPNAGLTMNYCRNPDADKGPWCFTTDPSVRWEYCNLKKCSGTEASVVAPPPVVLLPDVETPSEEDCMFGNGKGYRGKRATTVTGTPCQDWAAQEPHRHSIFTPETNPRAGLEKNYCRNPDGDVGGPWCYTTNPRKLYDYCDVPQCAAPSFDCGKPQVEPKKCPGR
Sequence of Plasminogen (P00747 581-810 limits assumed): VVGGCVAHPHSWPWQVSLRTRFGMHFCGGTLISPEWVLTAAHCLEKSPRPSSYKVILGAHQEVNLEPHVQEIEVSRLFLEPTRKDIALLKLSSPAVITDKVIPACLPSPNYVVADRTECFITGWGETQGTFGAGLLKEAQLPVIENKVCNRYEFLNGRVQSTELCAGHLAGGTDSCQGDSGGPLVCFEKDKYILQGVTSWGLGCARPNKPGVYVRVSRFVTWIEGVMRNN

Coagulation factor X = Coagulation factor X (Homo sapiens, UniProt P00742); assay: Inhibition of factor 10a
Sequence of Coagulation factor X (P00742 41-179 limits assumed): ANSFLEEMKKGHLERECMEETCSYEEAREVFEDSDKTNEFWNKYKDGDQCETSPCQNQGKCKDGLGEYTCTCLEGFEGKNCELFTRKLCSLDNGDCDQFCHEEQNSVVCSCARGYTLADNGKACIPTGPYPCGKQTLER
Sequence of Coagulation factor X (P00742 235-488 limits assumed): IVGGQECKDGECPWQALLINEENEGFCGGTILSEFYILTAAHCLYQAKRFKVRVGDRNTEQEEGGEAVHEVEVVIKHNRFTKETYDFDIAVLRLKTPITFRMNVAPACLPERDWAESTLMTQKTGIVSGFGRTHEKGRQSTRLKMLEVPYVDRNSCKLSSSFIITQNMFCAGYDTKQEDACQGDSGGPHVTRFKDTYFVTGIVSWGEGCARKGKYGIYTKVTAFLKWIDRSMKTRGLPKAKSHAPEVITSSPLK

SMILES | pKi [1] | pKi [2] | pKi (Prothrombin) | pKi (Plasminogen) | pKi (Coagulation factor X)
N=C(N)c1cccc(C[C@H](NS(=O)(=O)c2cccc(CCCCN)c2)C(=O)N2CCC(CCN)CC2)c1 | 5.42 | 9.00 | 6.34 | 6.70 | 5.36
N=C(N)c1cccc(C[C@H](NS(=O)(=O)c2cccc(C3CCC(N)=NC3)c2)C(=O)N2CCC(CCN)CC2)c1 (stereo partly specified) | 5.18 | 10.10 | 6.28 | 7.55 | 8.00
COc1ccc(-c2cccc(S(=O)(=O)NC(Cc3cccc(C(=N)N)c3)C(=O)N3CCC(CCN)CC3)c2)cc1 (racemic) | 5.00 | 8.15 | 7.40 | 6.92 | 6.44
N=C(N)c1cccc(CC(NS(=O)(=O)c2cccc(-c3ccc(Cl)cc3)c2)C(=O)N2CCC(CCN)CC2)c1 (racemic) | 4.96 |  | 8.00 | 6.74 | 6.04
N=C(N)c1cccc(CC(NS(=O)(=O)c2cccc(-c3cccc(Cl)c3)c2)C(=O)N2CCC(CCN)CC2)c1 (racemic) | 4.92 |  | 7.29 | 6.48 | 5.25
CCc1ccc(-c2cccc(S(=O)(=O)NC(Cc3cccc(C(=N)N)c3)C(=O)N3CCC(CCN)CC3)c2)cc1 (racemic) | 5.16 |  | 7.48 | 6.67 | 6.20
COc1ccc(-c2cccc(S(=O)(=O)NC(Cc3cccc(CN)c3)C(=O)N3CCC(CCN)CC3)c2)cc1 (racemic) | 3.89 |  | 5.01 | 6.11 | 4.26
N=C(N)c1cccc(C[C@H](NS(=O)(=O)c2cccc(NC(=O)C3CNC3)c2)C(=O)N2CCC(CCN)CC2)c1 | 5.43 | 8.52 | 5.29 | 6.30 | 4.95
N=C(N)c1cccc(CC(NS(=O)(=O)c2cccc(-c3cccnc3)c2)C(=O)N2CCC(CCN)CC2)c1 (racemic) | 4.96 |  | 6.82 | 6.00 | 5.46
N=C(N)c1cccc(CC(NS(=O)(=O)c2cccc(-c3ccccc3)c2)C(=O)N2CCC(CCN)CC2)c1 (racemic) | 5.08 | 6.96 | 7.25 | 6.26 | 5.27
N=C(N)c1cccc(CC(NS(=O)(=O)c2cccc(-c3ccncc3)c2)C(=O)N2CCC(CCN)CC2)c1 (racemic) | 5.43 |  | 6.80 | 6.96 | 5.80
N=C(N)c1cccc(CC(NS(=O)(=O)c2cccc(-c3ccccc3Cl)c2)C(=O)N2CCC(CCN)CC2)c1 (racemic) | 4.92 |  | 7.96 | 7.07 | 6.15
COc1ccc(-c2cccc(S(=O)(=O)NC(Cc3cccc(C(=N)N)c3)C(=O)N3CCC(CCN)CC3)c2)cc1OC (racemic) | 4.85 |  | 5.96 | 6.64 | 6.38
N=C(N)c1cccc(C[C@H](NS(=O)(=O)c2cccc(-c3ccc(N)nc3)c2)C(=O)N2CCC(CCN)CC2)c1 | 5.44 | 8.80 | 6.96 | 6.64 | 6.60
Cc1nccc(-c2cccc(S(=O)(=O)N[C@@H](Cc3cccc(C(=N)N)c3)C(=O)N3CCC(CCN)CC3)c2)n1 | 5.06 |  | 6.51 | 6.68 | 5.77
CC(C)Oc1ccc(-c2cccc(S(=O)(=O)NC(Cc3cccc(C(=N)N)c3)C(=O)N3CCC(CCN)CC3)c2)cc1 (racemic) | 5.02 |  | 6.62 | 7.10 | 5.47
CCOc1ccc(-c2cccc(S(=O)(=O)NC(Cc3cccc(C(=N)N)c3)C(=O)N3CCC(CCN)CC3)c2)cc1 (racemic) | 5.07 | 8.22 | 6.35 | 6.82 | 6.18
N=C(N)c1cccc(CC(NS(=O)(=O)c2cccc(-c3ccc4[nH]ccc4c3)c2)C(=O)N2CCC(CCN)CC2)c1 (racemic) | 5.21 |  | 6.72 | 6.42 | 6.82

Next, values leading:

pKi [1] | pKi [2] | pKi (Prothrombin) | pKi (Plasminogen) | pKi (Coagulation factor X) | SMILES
5.09 | 6.74 | 5.72 | 5.46 | 4.70 | CCC(=O)Nc1cccc(S(=O)(=O)N[C@@H](Cc2cccc(C(=N)N)c2)C(=O)N2CCC(CCN)CC2)c1
 | < 3.00 |  |  |  | NCCC(=O)Nc1cccc(S(=O)(=O)N[C@@H](CCc2ccccc2)C(=O)N2CCC(CCN)CC2)c1
 | 8.42 |  |  |  | N=C(N)c1cccc(C[C@H](NS(=O)(=O)c2cccc(NC(=O)CCN)c2)C(=O)N2CCC(CCN)CC2)c1
< 3.00 |  | < 3.00 | 4.80 | 4.04 | NCCC(=O)Nc1cccc(S(=O)(=O)N[C@@H](Cc2cccc(CN)c2)C(=O)N2CCC(CCN)CC2)c1
5.28 | 8.17 | 5.66 | 6.34 | 5.10 | N=C(N)c1cccc(C[C@H](NS(=O)(=O)c2cccc(NCCCN)c2)C(=O)N2CCC(CCN)CC2)c1
5.52 |  | 5.26 | 5.59 | 4.21 | N=C(N)c1cccc(C[C@H](NS(=O)(=O)c2cccc(NC(=O)CCO)c2)C(=O)N2CCC(CCN)CC2)c1
 | 5.00 |  |  |  | NCCC(=O)Nc1cccc(S(=O)(=O)N[C@@H](Cc2ccccc2)C(=O)N2CCC(CCN)CC2)c1
5.49 | 7.39 | 5.92 | 5.68 | 4.85 | CCOC(=O)Nc1cccc(S(=O)(=O)N[C@@H](Cc2cccc(C(=N)N)c2)C(=O)N2CCC(CCN)CC2)c1
< 3.00 | 5.55 | 3.49 | 4.19 | 3.37 | NCCC(=O)Nc1cccc(S(=O)(=O)N[C@@H](Cc2ccc(CN)cc2)C(=O)N2CCC(CCN)CC2)c1
 | < 3.00 |  |  |  | NCCC(=O)Nc1cccc(S(=O)(=O)N[C@@H](CCCc2ccccc2)C(=O)N2CCC(CCN)CC2)c1
